Measurements reported in patent publication US10202391B2, “Chemical compounds” (AstraZeneca AB, priority 2015, dated 2019).

What was measured:
ERK2 = target: T1, ERK2 (Homo sapiens, UniProt P28482); experiment: ERK2 Rapidfire Mass Spectrometry Inhibition of Catalysis Assay; type: biochemical; details: 1.2 nM ERK2, 16 μM Erktide, 120 μM ATP (measured Km), 15 minute pre-incubation; read-out: ERK2 Mass Spectrometry Enzyme IC50
T1 construct: made in house
Procedure, shortened: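 In-house MEK-activated ERK2 (1.2 nM) in 50 mM Tris pH 7.5, 10 mM MgCl2, 0.1 mM EGTA, 10 mM DTT, 0.01% CHAPS; 12-point dose range 10–0.0000125 μM, 1% DMSO. Reaction 20 min at room temperature, formic acid quench; Erktide and phospho-Erktide measured by RapidFire mass spectrometry to give IC50.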

H2122 cell line = experiment: Combination cell growth inhibition (Sytox Green, Loewe synergy), H2122; type: cell-based, human; details: Example 18 with selumetinib, 6x6 dosing matrix 0-10 μmol/L, 3 days, Loewe model, average of three or more experiments
Description: (§1) A549 is a human non small cell lung cancer line carrying an oncogenic mutation in the KRAS gene (G12S). H2122 is a human non small cell lung cancer line carrying an oncogenic mutation in the KRAS gene (G12C). H2009 is a human non small cell lung cancer line carrying an oncogenic mutation in the KRAS gene (G12A). Calu6 is a human non small cell lung cancer line carrying mutation in the KRAS ([…]) gene. All cell lines were obtained from the American Type Culture Collection.
(§2) All cell line were maintained at 37° C. and 5% CO2 in a humidified atmosphere and grown in RPMI-1640 growth media supplemented with 10% FBS and 2 mmol/L glutamine. […]
(§3) Cells were seeded in 384-well black, clear bottomed plates (Greiner Bio-One, Stonehouse, UK), cultured for 18-24 hours and treated with increasing concentrations of Example 18 and selumetinib (0-10 μmol/L) in a 6×6 dosing matrix. […] After 3 days of treatment, live cell number was determined using a Sytox Green endpoint as described previously (“Davies B R, Greenwood H, Dudley P, et al: Preclinical pharmacology of AZD5363, an inhibitor of AKT: Pharmacodynamics, antitumor activity, and correlation of monotherapy activity with genetic background. Mol Cancer Ther 11(4):873-87, 2012”). […] Cells were then permeabilised by the overnight addition of saponin (0.03% final concentration, diluted in TBS-EDTA buffer) and a total cell count measured. […]

[1] = system: panel of cancer cell lines with KRAS mutations; experiment: Cell growth inhibition, monotherapy, panel of KRAS mutant lines; type: cell-based, human; details: A549, H2122, H2009, Calu6; 3 days of treatment
Description: as §1, §2, §3

T1 sequence (P28482 whole entry): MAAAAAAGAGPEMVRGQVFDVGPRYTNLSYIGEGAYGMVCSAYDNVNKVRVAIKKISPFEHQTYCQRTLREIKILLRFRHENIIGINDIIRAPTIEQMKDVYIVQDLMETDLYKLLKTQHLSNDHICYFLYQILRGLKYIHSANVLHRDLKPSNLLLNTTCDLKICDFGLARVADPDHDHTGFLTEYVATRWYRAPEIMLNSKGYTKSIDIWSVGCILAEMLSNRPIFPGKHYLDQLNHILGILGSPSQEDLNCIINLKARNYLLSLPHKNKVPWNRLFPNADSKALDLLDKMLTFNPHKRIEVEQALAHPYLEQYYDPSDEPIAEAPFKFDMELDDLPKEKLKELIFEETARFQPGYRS

In the case of `COC[C@H]1Cn2cc(-c3nc(Nc4ccnn4C)ncc3C)nc2C(=O)N1Cc1ccc(F)c(F)c1` [Example 18, (R)-7-(3,4-Difluorobenzyl)-6-(methoxymethyl)-2-(5-methyl-2-((1-methyl-1H-pyrazol-5-yl)amino)pyrimidin-4-yl)-6,7-dihydroimidazo[1,2-a]pyrazin-8(5H)-one], the IC50 (ERK2) is reported as 0.6 nM, the Synergy score (H2122 cell line) is reported as 14.3 and the “cell growth inhibition as monotherapy” value [1] is reported as “can inhibit the growth of a panel of cancer cell lines with KRAS mutations as a monotherapy”.
